Measurements taken from patent US20080299186A1, “COATINGS FOR APPLYING SUBSTANCES ONTO SUBSTRATE CARRIER” (Schering-Plough Healthcare Products, Inc., priority 2007, published 2008).
Where a name gives a salt, the structure may show the parent alone.

Experiment: Phenylephrine HCl stability study: chemical compatibility with film forming polymers and plasticizers, HPLC degradation products
Assay type: physicochemical
Description: Methods: Chemical compatibility of Phenylephrine HCl with various film forming polymers or polymer blends and plasticizers (Table 2) was conducted. […] Two additional formulations (C and F) were used as controls. Sample C contained Phenylephrine HCl dissolved in water without any additional cellulosic or non-cellulosic polymers. Sample F comprised phenylephrine HCl in the absence of water. Both controls were subjected to the same drying conditions as the other example films prior to analysis.
Aliquots from the bulk coating dispersion equivalent to approximately 10 unit doses of the active were poured into flat, 4-6″ plastic weight boats and allowed to dry overnight for approximately 15-16 hours at 40C under vacuum. The amount per film equivalent to 10 unit doses was chosen for achieving reproducible and reliable analytical results for the Phenylephrine HCl degradants. […] These dried film samples were then stored at 50C in closed amber jars for 14 days. Each film was then analyzed by HPLC for the presence of degradation products. Separation of Phenylephrine HCl degradation products was accomplished on an HPLC using a Prontosil EPS C18, 100×4.6 mm (3 μparticle size) column manufactured by Bischoff Chromatography and using a gradient test method. Detection was by UV at 215 nm. The column was thermostated at 25° C. and an injection volume of 10 μL of sample solution was used. […]

In the case of `CNC[C@H](O)c1cccc(O)c1` [F, Phenylephrine HCl], the “total PE degradation, result in words (compared with controls)” value (stored at 50C in closed amber jars for 14 days) is reported as “no appreciable degradation occurred”.

For `CNC[C@H](O)c1cccc(O)c1` [C, Phenylephrine HCl], the “residual water after drying” value (after drying of the film sample) was 10-15%.
